{"source": "patent US20250268873A1", "about": "“COMBINATION OF DUAL ATM AND DNA-PK INHIBITORS AND IMMUNOTHERAPEUTIC AGENTS FOR USE IN CANCER THERAPY” (XRAD THERAPEUTICS, INC., priority 2021, published 2025)", "key": {"MDA-MB-231 tumors": {"tested_on": "MDA-MB-231 tumors", "assay": "In vivo tumor growth delay study, MDA-MB-231 subcutaneous human xenograft mouse model", "method": "Female NCr nu/nu mice (Crl:NU(NCr)-Foxn1nu, Strain 490) were obtained from Charles River at 5-6 weeks of age.\n(§1) FADU or MDA-MB-231 cells were harvested during log phase growth for in vivo implantation. The resuspended cells were washed three times in phosphate buffered saline (PBS) before preparing the working dilution in PBS. FADU cells were diluted to 1×10^7 cells/mL and MDA-MB-231 cells were diluted to 5×10^7 cells/mL. Each mouse was injected subcutaneously in the right flank with 100 μL of the cellular suspension. Tumor growth was monitored until the tumors reached a target volume of at least 100 mm^3, at which point mice were randomly stratified into four treatment groups.\nFollowing implantation of the tumor cell lines, mice were monitored once weekly for tumor development. Upon detection, tumors were measured in two dimensions using digital calipers. Tumors were treated after reaching at least 100 mm^3 and were measured two to three times weekly following enrollment in one of the treatment groups. The study endpoint was defined as tumor quintupling from the volume at time of treatment.\nThe vehicle used in this study was 0.5% (Hydroxypropyl)methyl cellulose (HPMC) and 0.2% Tween80 dissolved in deionized water. The pH of the vehicle was adjusted to 7.0-8.0 and the vehicle was stored at 4° C. On each day of in vivo treatment an appropriate mass of test compound was added to the vehicle at room temperature. The mixture was vortexed as necessary to generate a final concentration of 1.6 mg/mL.\nIn vivo tumor growth delay study was performed as follows. Following implantation of the tumor cell lines, mice were monitored once weekly for tumor development. Upon development of a tumor measuring at least 100 mm^3, tumor-bearing mice were stratified to one of 4 groups, utilizing 5 mice per group. Tumor volumes were between 100 and 500 mm^3. Vehicle or compound 569 (10 mg/kg) were administered by oral gavage once daily for three consecutive days (qd×3), alone or in combination with focal radiation. The delivered volume of vehicle or compound 569 was adjusted based on body weight of the individual animals. […]\nPrism (GraphPad) was used for graphical presentations. […] In order to adjust for the differing tumor sizes at the start of treatment, the relative tumor volume was calculated by dividing the tumor volume at each time point by the volume at baseline. […] When an animal exited the study due to tumor quintupling, the final tumor volume recorded for the animal was included with the data used to calculate the median volume at subsequent time points. […] Differences in quintupling-free survival between the four treatment groups were evaluated with a log-rank test. […]"}, "DNA-PK": {"target": "DNA-PK (Homo sapiens (Human), UniProt P78527)", "assay": "Pharmacodynamic assay, pDNA-PK/DNA-PK in MDA-231 tumors", "format": "in vivo", "method": "as §1\n(§2) Tumor studies were performed as follows. Mice bearing FADU or MDA-231 tumors were pre-dosed with vehicle alone or compound 569 alone at 3, 6, and 10 mg/kg. Tumors were then irradiated with 10 Gy 45 min after vehicle or compound 569 administration or left unirradiated (vehicle and compound 569 at 10 mg/kg). Tumors were harvested 1 h post radiation.\n(§3) Tissue homogenates for pharmacodynamic analyses were collected and processed as follows. Tumor tissues from FADU or MDA-MB-231 tumors were flash frozen in liquid nitrogen and pulverized on dry ice using a tissue pulverizer. A portion of the tumor powder was transferred into a microtube, followed by addition of 500 μL of RIPA buffer [[…], pH 8.0, 150 mM NaCl, 0.1% SDS, 0.5% sodium deoxycholate, 1% IGEPAL® CA-630 (Sigma, I8896)]. To 10 ml of RIPA buffer, 2 tablets each of Protease inhibitor and Phosphatase inhibitor (Roche, #04693159001 & #04906837001), 200 μL of 0.1 M PMSF and 160 μL of Aprotinin, (Sigma, A6279) were added. The suspension was homogenized on ice with a pellet pestle motor (KONTES) and incubated on ice for 30 minutes. Cell lysates were centrifuged at 13,200 rpm for 15 min at 4° C. and supernatants were transferred to a new tube and analyzed for protein concentration with a BCA kit (Pierce, 23227), followed by immunoblotting."}, "mTOR": {"target": "mTOR (Homo sapiens, UniProt P42345)", "assay": "mTOR Biochemical Assay (LanthaScreen TR-FRET)", "conditions": "ATP 3 μM", "method": "mTOR Kinase reactions were performed in a 10 μL volume in low-volume 384-well plates. Typically, PerkinElmer model 6008260 plates were used. The composition of the 1× kinase reaction buffer was: 50 mM HEPES pH 7.5, 0.01% Tween 20, 1 mM EGTA, 10 mM MnCl2, and 2 mM DTT. The solution of mTOR enzyme (ThermoFisher, #PR8683B; the final mTOR concentration: 0.5 μg/mL) was added, and the compounds were serially diluted to the final maximal concentration of 100 nM (3 fold series dilution, a total of 10 doses). GFP-4E-BP1 (the final concentration: 0.4 μM) and the ATP solution (the final ATP concentration: 3 μM) were added to the 384-well plate. The plate was incubated at 25° C. for 1 hour, and 10 μL of the EDTA solution (20 mM) and Tb-labeled anti-p4E-BP1 antibody (4 nM) in TR-FRET dilution buffer were added to each well. The plate was sealed, incubated 30 min at 25° C., and read on a plate reader configured for LanthaScreen™ TRFRET."}, "ATM": {"target": "ATM (Homo sapiens (Human), UniProt Q13315)", "sequence (Q13315 whole entry)": "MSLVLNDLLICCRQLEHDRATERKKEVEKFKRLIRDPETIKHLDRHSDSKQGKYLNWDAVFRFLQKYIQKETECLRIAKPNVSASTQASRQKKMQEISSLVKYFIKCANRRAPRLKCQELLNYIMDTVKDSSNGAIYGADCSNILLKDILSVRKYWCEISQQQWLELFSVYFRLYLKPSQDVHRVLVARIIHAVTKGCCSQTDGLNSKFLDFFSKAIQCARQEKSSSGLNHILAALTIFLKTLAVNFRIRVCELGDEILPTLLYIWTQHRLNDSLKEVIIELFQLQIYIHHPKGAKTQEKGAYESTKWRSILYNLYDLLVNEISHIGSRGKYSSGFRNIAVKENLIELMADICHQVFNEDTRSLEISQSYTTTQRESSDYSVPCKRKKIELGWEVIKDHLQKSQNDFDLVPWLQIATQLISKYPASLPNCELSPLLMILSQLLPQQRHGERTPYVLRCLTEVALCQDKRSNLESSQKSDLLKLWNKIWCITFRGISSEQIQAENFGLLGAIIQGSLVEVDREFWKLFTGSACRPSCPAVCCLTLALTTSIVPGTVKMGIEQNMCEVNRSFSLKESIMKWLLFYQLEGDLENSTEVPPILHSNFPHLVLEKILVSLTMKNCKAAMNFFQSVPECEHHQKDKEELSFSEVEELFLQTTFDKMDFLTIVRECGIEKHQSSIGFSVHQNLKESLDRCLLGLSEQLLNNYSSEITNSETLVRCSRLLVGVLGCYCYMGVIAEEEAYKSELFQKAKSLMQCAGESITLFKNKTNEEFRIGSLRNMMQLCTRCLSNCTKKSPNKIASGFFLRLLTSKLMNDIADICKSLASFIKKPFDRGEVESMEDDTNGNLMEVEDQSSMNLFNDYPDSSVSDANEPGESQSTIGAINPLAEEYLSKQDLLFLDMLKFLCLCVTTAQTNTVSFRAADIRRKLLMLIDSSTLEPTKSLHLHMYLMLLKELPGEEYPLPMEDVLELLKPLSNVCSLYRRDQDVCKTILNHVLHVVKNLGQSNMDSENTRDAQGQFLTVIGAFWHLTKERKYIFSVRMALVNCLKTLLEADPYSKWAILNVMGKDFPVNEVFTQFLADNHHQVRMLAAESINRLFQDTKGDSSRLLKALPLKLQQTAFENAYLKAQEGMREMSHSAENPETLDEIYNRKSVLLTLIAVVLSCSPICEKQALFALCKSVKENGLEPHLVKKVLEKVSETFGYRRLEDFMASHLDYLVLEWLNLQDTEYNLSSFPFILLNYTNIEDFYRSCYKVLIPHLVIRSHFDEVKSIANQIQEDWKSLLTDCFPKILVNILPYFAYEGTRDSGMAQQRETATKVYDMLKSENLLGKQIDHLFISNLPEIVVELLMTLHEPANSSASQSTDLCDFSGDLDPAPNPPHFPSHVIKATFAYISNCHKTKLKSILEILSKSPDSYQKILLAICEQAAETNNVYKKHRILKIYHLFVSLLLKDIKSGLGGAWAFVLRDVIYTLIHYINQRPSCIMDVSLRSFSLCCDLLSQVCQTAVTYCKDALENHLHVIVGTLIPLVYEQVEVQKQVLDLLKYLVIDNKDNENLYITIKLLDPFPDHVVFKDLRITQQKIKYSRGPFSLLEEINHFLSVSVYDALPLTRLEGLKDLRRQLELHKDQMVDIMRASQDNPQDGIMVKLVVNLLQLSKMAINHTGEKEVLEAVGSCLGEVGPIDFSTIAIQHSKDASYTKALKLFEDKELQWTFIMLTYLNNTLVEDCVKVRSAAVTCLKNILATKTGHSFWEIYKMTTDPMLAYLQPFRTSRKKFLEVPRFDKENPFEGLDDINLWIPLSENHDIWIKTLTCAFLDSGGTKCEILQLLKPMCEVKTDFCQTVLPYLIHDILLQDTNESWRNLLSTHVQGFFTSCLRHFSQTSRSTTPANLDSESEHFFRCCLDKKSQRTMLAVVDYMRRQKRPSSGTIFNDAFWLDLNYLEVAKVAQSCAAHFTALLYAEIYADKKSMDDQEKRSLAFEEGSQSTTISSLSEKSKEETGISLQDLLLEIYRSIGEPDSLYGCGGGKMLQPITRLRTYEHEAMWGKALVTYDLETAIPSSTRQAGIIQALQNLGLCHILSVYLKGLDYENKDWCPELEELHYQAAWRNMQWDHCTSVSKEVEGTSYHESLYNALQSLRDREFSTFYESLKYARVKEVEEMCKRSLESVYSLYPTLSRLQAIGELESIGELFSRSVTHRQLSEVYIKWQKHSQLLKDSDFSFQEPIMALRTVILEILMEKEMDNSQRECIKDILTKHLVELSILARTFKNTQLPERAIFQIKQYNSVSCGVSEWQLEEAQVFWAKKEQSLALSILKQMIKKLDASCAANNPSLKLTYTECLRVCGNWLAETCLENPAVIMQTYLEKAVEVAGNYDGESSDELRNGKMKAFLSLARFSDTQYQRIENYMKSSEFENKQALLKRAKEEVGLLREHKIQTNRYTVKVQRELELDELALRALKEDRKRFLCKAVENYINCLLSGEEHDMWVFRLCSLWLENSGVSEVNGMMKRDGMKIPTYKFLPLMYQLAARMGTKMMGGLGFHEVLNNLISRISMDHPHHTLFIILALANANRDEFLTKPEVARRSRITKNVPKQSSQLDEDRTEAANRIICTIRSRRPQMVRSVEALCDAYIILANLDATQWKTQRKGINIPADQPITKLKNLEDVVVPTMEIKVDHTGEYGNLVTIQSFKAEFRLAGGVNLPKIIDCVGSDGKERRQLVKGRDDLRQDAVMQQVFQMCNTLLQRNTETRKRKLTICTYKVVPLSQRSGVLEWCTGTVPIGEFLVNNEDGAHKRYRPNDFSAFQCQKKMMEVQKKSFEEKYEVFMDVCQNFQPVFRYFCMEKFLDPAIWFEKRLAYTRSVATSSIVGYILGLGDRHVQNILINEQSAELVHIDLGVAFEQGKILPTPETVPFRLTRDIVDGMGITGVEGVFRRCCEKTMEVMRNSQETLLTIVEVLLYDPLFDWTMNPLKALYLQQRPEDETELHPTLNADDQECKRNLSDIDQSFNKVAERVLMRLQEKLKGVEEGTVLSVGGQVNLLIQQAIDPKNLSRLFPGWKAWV", "assay": "Pharmacodynamic assay, pKAP1/KAP1 in MDA-231 tumors", "format": "in vivo", "method": "as §1, §2, §3"}}, "data": [{"smiles": "CC(C)NCCOc1ncc(-c2cc3c4c(cnc3cc2F)N(C)C(=O)C42CCC2)cc1NS(C)(=O)=O", "note": "[Compound 569, N-(5-(7′-Fluoro-3′-methyl-2′-oxo-2′,3′-dihydrospiro[cyclobutane-1,1′-pyrrolo[2,3-c]quinolin]-8′-yl)-2-(2-(isopropylamino)ethoxy)pyridin-3-yl)methanesulfonamide]", "values": [{"measurement": "median time to endpoint (tumor quintupling)", "setting": "MDA-MB-231 tumors; Group 2: compound 569 10 mg/kg po qd×3 alone", "value": 17, "unit": "days"}, {"measurement": "tumor growth curves and quintupling-free survival", "setting": "MDA-MB-231 tumors; Group 2: compound 569 10 mg/kg qd×3 alone vs vehicle (Group 1)", "value": "nearly identical to those for Group 1"}, {"measurement": "median time to endpoint (tumor quintupling)", "setting": "MDA-MB-231 tumors; Group 4: compound 569 10 mg/kg 45 min prior to 3 Gy focal radiation, qd×3", "value": 43, "unit": "days"}, {"measurement": "overall survival (quintupling-free)", "setting": "MDA-MB-231 tumors; Group 4: compound 569 + 3 Gy qd×3, P<0.01, logrank", "value": "significantly improved compared to Group 1, Group 2, and Group 3"}, {"measurement": "pDNA-PK/DNA-PK", "setting": "DNA-PK; 10 Gy, 3 mg/kg oral", "value": 0.889}, {"measurement": "pDNA-PK/DNA-PK", "setting": "DNA-PK; 10 Gy, 6 mg/kg oral", "value": 0.670}, {"measurement": "pDNA-PK/DNA-PK", "setting": "DNA-PK; 10 Gy, 10 mg/kg oral", "value": 0.454}, {"measurement": "pDNA-PK/DNA-PK", "setting": "DNA-PK; no radiation, 10 mg/kg oral", "value": 0.223}, {"measurement": "IC50", "setting": "mTOR", "value": "> 100", "unit": "nM"}, {"measurement": "pKAP1/KAP1", "setting": "ATM; 10 Gy, 3 mg/kg oral", "value": 0.327}, {"measurement": "pKAP1/KAP1", "setting": "ATM; 10 Gy, 6 mg/kg oral", "value": 0.0130}, {"measurement": "pKAP1/KAP1", "setting": "ATM; 10 Gy, 10 mg/kg oral", "value": 0.00901}, {"measurement": "pKAP1/KAP1", "setting": "ATM; no radiation, 10 mg/kg oral", "value": "−0.00319"}]}]}
